From US20100048630A1, “METHODS FOR TREATING CNS DISORDERS” (priority 2008, published 2010)

Experiments:
Male NMRI mice [1] = assay: Forced swimming test (FST); assay type: in vivo; conditions: doses of 5 and 10 mg/kg; may be a false positive from nonspecific stimulatory effect
Procedure: (§1) Male NMRI mice weighing 24-26 g were used. The animals were kept in polycarbonate cages in a thermostatically controlled room at 24±2° C. and at a relative humidity (RH) of 50±10%. The room was artificially illuminated from 6 am to 6 pm and the mice were given commercial pellet rat-mouse feed, autoclaved at 105° C. and sterile filtered tap water, ad libitum.
(§2) An aqueous solution of radiprodil, in the form of a complex with heptakis(2,6-di-O-methyl)-β-cyclodextrin (DIMEB), was administered orally at doses of 2.5, 5 and 10 mg/kg (calculated for non-complexed radiprodil). […]
The forced swimming test (FST) was measured in glass cylinders (height: […], diameter 14 cm) containing 12 cm of water, maintained at 23-25° C. […] The duration of immobility was recorded using a stopwatch. […]
In the forced swimming test, the mean±standard error on the mean (s.e.m) immobility time in seconds was measured. […] The mean (±s.e.m) “FST-activity” value was also calculated for each group and submitted to the same data analysis process as the immobility data.
(§3) The significance of the drug effect was determined by ANOVA followed by post-hoc Duncan-test. The percentage change in the horizontal activity, immobility or “FST-activity” variables were calculated for each dose according to the equation; […]

Male NMRI mice [2] = assay: Spontaneous locomotor activity (four-channel activity monitor); assay type: in vivo; conditions: doses of 5 and 10 mg/kg
Procedure: as §1, §2
Spontaneous locomotor activity was measured in a four-channel activity monitor manufactured by Farmakotechnika (Hungary). […] The photocell beam, when broken, signaled a count, which was then recorded by a computer.
Each group consisted of 10 animals. […] The horizontal and vertical movements were determined as the number of beam interruptions collected in 15 minute intervals throughout the 1 hour period.
In the spontaneous locomotor activity test, the mean (±s.e.m) value of one hour horizontal activity data (in counts) of each group was calculated.
as §3

O=C(Nc1ccc2[nH]c(=O)oc2c1)C(=O)N1CCC(Cc2ccc(F)cc2)CC1 [radiprodil, 2-[4-(4-fluoro-benzyl)-piperidine-1-yl]-2-oxo-N-(2-oxo-2,3-dihydro-benzoxazol-6-yl)acetamide] was tested, and the “effect in the forced swimming test” value (Male NMRI mice [1]) was “significant effects” and the “effect on spontaneous motor activity of the mice” value (Male NMRI mice [2]) was “stimulated”.
